Assay results from patent publication US11726082B2, “Screening method of drug candidates for treating disease using interaction between calcium and phosphatidylinositol phosphate” (Gachon University of Industry—Academic Cooperation …, priority 2017, dated 2023).
Entries after “also recorded” stand apart in the source; their conditions may differ.

Key:
PH domain of Akt protein = target: T1, PH domain of Akt protein (Homo sapiens, UniProt P31749); assay: Protein-lipid binding assay (PIP-strips) with PH domain of Akt protein; conditions: calcium 0, 0.05 or 0.1 mM
T1 construct: His6 (C); made in house; host or cells: E. coli BL21 (DE3), pET28a vector
Experimental: E. coli BL21 (DE3) cells were transfected with a vector containing the PH domain of Akt protein, and the cells were cultured in 50 Ml of LB medium supplemented with 50 μg/Ml of kanamycin. The culture was performed at 37° C. for 8 hours. Upon completion of the culture, the cells were transferred into a 25° C. agitation incubator. The cells were cultured until OD600 reached 0.6 to 1.0, and then 1 mM IPTG (isopropyl-β-D-1-thiogalactopyranoside) was added thereto. 18 hours after the addition of IPTG, centrifugation was performed at 7,000×g at 4° C. for 10 minutes to obtain cells. Sonication equilibrium buffer (150 mM NaCl, 50 mM Tris-HCl, pH 7.6) was added to the obtained cells. The cells added with the sonication equilibrium buffer were lysed by sonication. The PH domain of Akt protein was purified from the cell lysate by […] using nickel-nitrilotriacetic acid and HiLoad Superdex-200 column (GE Healthcare life science, USA). The purity of the purified protein was examined by SDS-PAGE (sodium dodecyl sulfate polyacrylamide gel electrophoresis).
Particularly, the analysis was performed by using membrane-immobilized lipid strips (PIP-strips, Echelon Biosciences Inc., USA). […]

[1] = target: T2, PH domain of the purified Akt protein (Homo sapiens, UniProt P31749); assay: ITC of binding of PH domain of purified Akt protein to phospholipids; conditions: increase of the calcium concentration
T2 construct: His6 (C); made in house; host or cells: E. coli BL21 (DE3), pET28a vector
Experimental: (§1) Particularly, a protein solution was prepared by suspending a protein in 10 mM HEPES (pH 7.0). Phospholipid related ligand was titrated in the protein solution at 25° C. by using iTC200 micro calorimetry system (MicroCal Inc., USA), and the generated graph was corrected using Origin software (MicroCal Inc., USA). At this time, the phospholipid related ligand was prepared in the form of liposome by mixing POPC (1-palmitoyl-2-oleoyl-sn-glycero-3-phosphocholin) chloroform solution and POPS (1-palmitoyl-2-oleoyl-sn-glycero-3-phosphoserine), PI(3,4)P2 (1,2-dipalmotoyl-sn-glycero-3-phosphatidylinositol-3,4-[…]), PI(4,5)P2 (1,2-dipalmotoyl-sn-glycero-3-phosphatidylinositol-4,5-trisphosphate) or PI(3,4,5)P3 (1,2-dipalmotoyl-sn-glycero-3-phosphatidylinositol-3,4,5-trisphosphate) at the molar ratio of 80:20. The organic solvent was eliminated. The organic solvent was removed and a single layer lamellar was produced in HEPES (pH 7.0) using phospholipids.

Akt protein [2] = assay: Western blotting of Akt protein phosphorylation in insulin-treated HepG2 cells; assay type: cell-based, human; conditions: verapamil 0, 5, 10 or 100 nM, with or without insulin
Experimental: First, male C57BL/6 mice at 8 weeks were divided into the fasted group wherein the mice were fasted for 16 hours and the refed group wherein the mice were fasted for 16 hours and then fed for 4 hours. Each group was sub-divided into the high fat diet group (HFD) and the normal diet group (chow). The liver cells were extracted from the raised mice by the same manner and under the same conditions as described in Example 1. The extracted liver cells were lysed in a lysis buffer containing phosphatase (Sigma-Aldrich, USA) and protease inhibitor (Sigma-Aldrich, USA). Proteins extracted from 2 to 3 mg of the liver tissue were homogenized by using a tissue homogenizer (TissuLyser, Qiagen, USA) for 1.5 minutes at a frequency of 1/30 sec. The homogenized lysate was centrifuged at 12,000 rpm for 15 minutes and the supernatant was obtained. The amount of the extracted protein was quantified by using a protein assay kit (Bio-Rad Laboratories, USA), and at this time BSA was used as a standard sample. 3 mg of the protein was mixed with 6× loading buffer, followed by electrophoresis using 10% SDS-PAGE gel. The electrophoresed protein was transferred onto a polyvinylidene fluoride (PVDF) membrane by using a transfer buffer at 4° C. with 120 V for 1.5 hours. The PVDF membrane on which the protein was transferred was pretreated with a blocking buffer prepared by mixing 5% skim milk with TBS buffer (TBS-T, pH 7.6) supplemented with Tween 20 for 30 minutes, and the membrane was washed with TBS-T. The washed membrane was added with the antibody against Akt (Cell Signaling Technology, USA), Akt(T308) (Cell Signaling Technology, USA), Akt(S473) (Cell Signaling Technology, USA), FOXO3A (Cell Signaling Technology, USA), FOXO3A(S253) (Cell Signaling Technology, USA), GSK-3β (Cell Signaling Technology, USA) or GSK-3β(S9) (Cell Signaling Technology, USA) protein as a primary antibody, followed by reaction at 4° C. for 12 hours. At this time, the antibody against actin (Santa Cruz Biotechnology, USA) protein was used for the control group. Upon completion of the reaction, the secondary antibody corresponding to the primary antibody was added thereto, followed by reaction at room temperature for 30 minutes. The PVDF membrane was washed with TBS-T buffer three times. The washed PVDF membrane was added with ECL solution (Thermo Scientific, USA), followed by image observation.
To investigate the changes in insulin sensitivity when insulin was added to the fatty liver cell model constructed in vitro, the phosphorylations of those proteins that were involved in insulin signal transduction were examined. PA was added to the human HepG2 cells prepared in Example 3, followed by reaction for 24 hours. […]

[3] = tested on: cells having an increased intracellular calcium concentration; assay: Calcium concentration in cells having an increased intracellular calcium concentration; assay type: cell-based; conditions: cells having an increased intracellular calcium concentration treated with verapamil
[4] = Protein-lipid binding assay with PKCβ protein C2 domain, PI(4,5)P2; conditions: calcium 0, 0.05 or 0.1 mM
Experimental: (§2) Particularly, the analysis was performed by using membrane-immobilized lipid strips (PIP-strips, Echelon Biosciences Inc., USA). At this time, the membrane was loaded with LPA (lysophosphatidic acid), LPC (lysophosphatidylcholine), PI (phosphatidylinositol), PE (phosphatidylethanolamine), PC (phosphatidylcholine), S1P (sphingosine 1-phosphate), PA (phosphatidic acid) or PS (phosphatidylserine) at the concentration of 100 pmol, to which calcium was added at the concentration of 0, 0.05 or 0.1 mM. Each membrane was pre-treated with a blocking buffer [fatty acid free 3% BSA (bovine serum albumin), 0.1% (v/v) Tween 20 and TBS (Tris-buffered saline), pH 7.5] at room temperature for 30 minutes. The PH domain of Akt protein purified in Example <7-1> was suspended in a blocking buffer at the concentration of 3.5 mg/Ml. The suspended protein was reacted with the membrane-immobilized lipid strip at room temperature for 30 minutes. The protein bound with lipid was identified by using the PH domain antibody.
(§3) To investigate whether or not the binding of the PKCβ protein C2 domain purified in Example <8-1> to PI(4,5)P2 or PI(3,4,5)P3 was inhibited by calcium, protein lipid binding assay and ITC were performed. […]

[5] = Protein-lipid binding assay with PKCβ protein C2 domain, PI(3,4,5)P3; conditions: calcium 0, 0.05 or 0.1 mM
Experimental: as §2, §3

[6] = ITC of PKCβ protein C2 domain with PI(3,4,5)P3 liposome; assay type: binding
Experimental: as §1
In the meantime, in ITC, the phospholipid related ligand was prepared in the form of liposome by mixing POPC chloroform solution and PI(3,4,5)P3 at the molar ratio of 80:20. Then, ITC was performed by the same manner under the same conditions as described in Example <7-3> except that the PKCβ protein C2 domain or D187/193A, the C2 domain mutant, was used.

CHO cells = assay: Migration of mCherry-tagged PH or C2 domain to the cell membrane, fluorescence microscopy; assay type: cell-based
Text: First, the PH domain of Akt1 protein or C2 domain of PKCβ protein was obtained by PCR using the primers consisting of the nucleotide sequences represented by […]. The obtained PCR product was cloned in pmCherry-C1 vector (Takara Clontech, Japan) by the conventional cloning method. CHO cells were transfected with the prepared vector by using lipofectamine according to the manufacturer's protocol. The transfected cells were selected by using blastidicin. Then, mCherry positive cells were confirmed by flow cytometry.
PMA at the concentration of 100 nM, ionomycin at the concentration of 10 μM or insulin at the concentration of 100 nM was added to the cells expressing the PH domain of Akt1 protein or the C2 domain of PKCβ protein and the location of the expressed protein was confirmed by fluorescence microscopy.

Akt protein [7] = assay: Western blot of Akt activation in HepG2 cells transfected with C2-Akt fusion protein or wild type Akt and PI3K; assay type: cell-based, human; conditions: increase of calcium concentration (PMA 0, 10, 50 or 100 nM, ionomycin 20 μM, 1 hour)
Text: First, the C2 domain of PKCβ protein and Akt protein (SEQ. ID. NO: 15) were obtained by PCR using the primers consisting of the nucleotide sequences represented by SEQ. ID. NO: 9˜SEQ. ID. The obtained PCR product was cloned in pEGFP-C2 vector by the conventional cloning method, resulting in the construction of a vector expressing the C2 domain/Akt protein fusion protein (SEQ. ID. NO: 17) (C2-Akt fusion protein). At this time, as the control group, a vector expressing the wild type Akt protein containing the PH domain was prepared.
HepG2 cells were transfected with the vector expressing the C2-Akt fusion protein constructed above along with the vector expressing PI3K protein by using lipofectamine according to the manufacturer's protocol. The transfected cells were treated with PMA at the concentration of 0, 10, 50 or 100 nM ionomycin at the concentration of 20 μM, followed by reaction for 1 hour. Western blot analysis was performed with the cells above. […]

T2 sequence (P31749 1-144): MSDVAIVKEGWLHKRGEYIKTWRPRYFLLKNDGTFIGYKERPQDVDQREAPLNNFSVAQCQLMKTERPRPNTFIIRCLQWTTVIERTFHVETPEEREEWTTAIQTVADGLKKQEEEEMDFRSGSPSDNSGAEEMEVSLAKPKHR
T1 sequence (P31749 1-144): as above

## [Ca+2] [calcium]
PH domain of Akt protein
  binding of PH domain of Akt protein to PI(3,4)P2 or PI(3,4,5)P3: inhibited
[1]
  binding of PH domain of Akt protein to PI(3,4)P2, PI(4,5)P2, PI(3,4,5)P3 or PS: inhibited

## COc1ccc(CCN(C)CCCC(C#N)(c2ccc(OC)c(OC)c2)C(C)C)cc1OC (stereo not drawn) [verapamil]
Akt protein [2]
  phosphorylation of Akt protein: increased
[3]
  increased calcium concentration: inhibited; also recorded: reduced

## C2 domain of PKCβ protein: C2 domain of PKCβ protein (SEQ. ID. NO: 14)
[4]
  binding to PI(4,5)P2: strongly bound; also recorded: promoted
[5]
  binding to PI(3,4,5)P3: strongly bound; also recorded: promoted
[6]; absence of calcium
  binding to PI(3,4,5)P3: not induced
[6]; increased calcium concentration
  binding to PI(3,4,5)P3: combined
[6]; increased calcium concentration, listed as PKCβ protein C2 domain
  binding to PI(3,4,5)P3: strongly bound
CHO cells; addition of insulin 100 nM
  migration to the cell membrane: did not migrate
CHO cells; increased intracellular calcium concentration (PMA 100 nM, ionomycin 10 μM)
  migration to the cell membrane: migrated; also recorded: promoted

## wild type Akt protein: wild type Akt protein containing the PH domain, control
Akt protein [7]
  Akt protein activation by PI3K: inhibited
